Reference: a compilation of properties of binary mixtures (doi:10.1021/acs.jced.3c00374)

Assay: xn = mol fraction of the nth substance listed
Conditions: 100 kPa

OCCNCCO + CCCC[n+]1ccn(C)c1.N#C[S-]
x2 = 0
Conditions	speed of sound [m/s]
288.15 K	1761.3
308.15 K	1700.6
318.15 K	1675.6

CCCC[n+]1ccn(C)c1.N#C[S-] + OCCNCCO
speed of sound [m/s]
Conditions	x1 = 0.1008	x1 = 0.2103	x1 = 0.2993	x1 = 0.4027	x1 = 0.5131	x1 = 0.6087	x1 = 0.7102	x1 = 0.8009	x1 = 0.9102	x1 = 1
288.15 K	1764.4	–	1770.6	1773.9	1777.3	–	1783.5	1786.3	1789.8	1792.6
298.15 K	1732.8	1737	–	1744.5	1748.7	1752.4	–	–	1764	1767.5
308.15 K	1704.9	1709.6	–	1717.8	1722.5	–	1731	–	1739.6	1743.4
318.15 K	1680.4	1685.6	1689.8	1694.8	1700	1704.6	1709.4	1713.7	–	–
